Legend:
HO-1 [1] = test: HO-1 protein expression by Western blot, A172; format: cell-based, human; conditions: A172, 10 μM, 48 h
Experimental: (§1) Proteins were extracted from total cell lysate, as previously described.[61] Briefly, cell lines were added to a buffer containing 20 mM Tris (pH 7.4), 2 mM EDTA, 0.5 mM EGTA, 50 mM mercaptoethanol, and […] sucrose supplemented with phosphatase and protease inhibitor cocktails (Roche Diagnostics, Monza, Italy). Subsequently, protein samples were sonicated twice for 20′ by using an ultrasonic probe, followed by centrifugation at 10 000g for 10 min at 4 °C. Sample proteins (30 μg) were diluted in 4X NuPage LDS sample buffer (Invitrogen, NP0007), heated at 80 °C for 5 min, and then separated on a Biorad Criterion XT 4–15% Bis–Tris gel (BIO-RAD) by electrophoresis and then transferred to a PVDF membrane (BIO-RAD). Blots were blocked using the Odyssey Blocking Buffer (LI-COR Biosciences) and probed with appropriate antibodies: HO-1 antibody (GeneTex GTX101147), goat polyclonal anti-VEGF (cat. no. sc-1836, Santa Cruz Biotechnology), and rabbit polyclonal anti-β-tubulin (cat n.sc-9104, Santa Cruz Biotechnology) and β-actin antibody (GeneTex GTX109639).
(§2) The secondary antibodies goat antirabbit (Odyssey, #926-32211; Odyssey #926-68021) and donkey antigoat IRDye 800CW (cat #926-32214; Li-Cor Biosciences) were used at 1:7000. Blots were scanned, and densitometric analysis was performed with the Odyssey Infrared Imaging System. Values were normalized to β-actin and to β-tubulin.

HO-1 [2] = test: HO-1 protein expression by Western blot, DU145; format: cell-based; conditions: DU145, 10 μM, 48 h
Experimental: as §1, §2

A172 cells = test: MTT cell viability assay, A172; format: cell-based, human; conditions: 48 h, all tested concentrations (1, 10, 50 μM)
Experimental: Experiments were performed on human GBM cell lines U87MG (ATCCC number #HTB-14) and A172 (ATCCC #CRL-1620) on DU145 (ATCC HTB-81) and human lung adenocarcinoma A549 (ATCC CCL-185-LUC2). All cell lines were obtained from the American Type Culture Collection (ATCC, Rockville, MD). Cells were grown in Dulbecco’s modified Eagle’s medium (DMEM) supplemented with 10% of heat-inactivated fetal bovine serum (FBS), 100 U/mL of penicillin, and 100 μg/mL of streptomycin (Sigma-Aldrich, Steinheim, Germany). Cells were incubated at 37 °C in a humidified atmosphere with 5% CO2.
The effect of selected compounds 7i and 7l–p on cell viability was assessed by performing an MTT assay. Cells were seeded into 96-well plates at a density of 7 × 10^3 cells/well in 100 μL of culture medium. After 24 h, cells were treated with selected compounds at three different concentrations (1 μM, 10 μM, and 50 μM) for 48 h. Following treatments, 0.5 mg/mL of 3-[4,5-dimethylthiazol-2-yl]-2,5-diphenyltetrazolium bromide (MTT) (Sigma-Aldrich) was added to each well and incubated for 4 h at 37 °C. Finally, dimethyl-sulfoxide (DMSO) was used to dissolve formazan salts, and absorbance was measured at 570 nm in a microplate reader (Biotek Synergy-HT). Eight replicate wells were used for each group.

HO-1 [3] = target: T1, HO-1 (Rattus norvegicus, UniProt P06762); test: HO-1 enzymatic activity, rat spleen microsomal fraction (bilirubin formation); format: biochemical
T1 construct: selected to use the most native (i.e., closest to in vivo) forms of HO-1 and HO-2; from tissue; host or cells: rat spleen (male Sprague-Dawley), microsomal fraction
T1 sequence (P06762 1-289): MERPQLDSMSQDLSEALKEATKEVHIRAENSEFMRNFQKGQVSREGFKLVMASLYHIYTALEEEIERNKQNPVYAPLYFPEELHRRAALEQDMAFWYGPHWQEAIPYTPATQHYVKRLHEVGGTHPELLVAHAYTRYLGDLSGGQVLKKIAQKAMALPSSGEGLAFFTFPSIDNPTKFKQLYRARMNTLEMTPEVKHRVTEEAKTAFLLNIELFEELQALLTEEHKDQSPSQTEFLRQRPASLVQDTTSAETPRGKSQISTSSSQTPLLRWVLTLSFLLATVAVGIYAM
Experimental: (§3) HO-1 and HO-2 were obtained, respectively, from the rat spleen and brain as the microsomal fraction prepared by differential centrifugation; the dominance of HO-1 protein in the rat spleen and HO-2 in the rat brain has been well documented.[24] These particular microsomal preparations were selected to use the most native (i.e., closest to in vivo) forms of HO-1 and HO-2. Spleen and brain (Sprague-Dawley rats) microsomal fractions were prepared according to the procedure outlined by Ryter et al.[2] The experiments reported in the present paper complied with the current Italian law and met the guidelines of the Institutional Animal Care and Use Committee of the Ministry of Health (Directorate General for Animal Health and Veterinary Medicines, Italy) “Dosing of enzymatic activities in rat microsomes” (2018–2022), project code 02769.N.VLY. The experiments were performed in male Sprague-Dawley albino rats (150 g body weight and age 45 d). They had free access to water and were kept at room temperature with a natural photoperiod (12 h light–12 h dark cycle). For measuring HO-1 and HO-2 activities, each rat was sacrificed and their spleen and brain were excised and weighed. A homogenate (15%, w/v) of spleens and brains pooled from four rats was prepared in ice-cold HO-homogenizing buffer (50 mM Tris buffer, pH 7.4, containing 0.25 M sucrose) using a Potter–Elvehjem homogenizing system with a Teflon pestle. The microsomal fraction of rat spleen and brain homogenate was obtained by centrifugation at 10 000g for 20 min at 4 °C, followed by centrifugation of the supernatant at 100 000g for 60 min at 4 °C. The 100 000g pellet (microsomes) was resuspended in 100 mM of potassium phosphate buffer, pH 7.8, containing 2 mM MgCl2 with a Potter–Elvehjem homogenizing system. The rat spleen and brain microsomal fractions were divided into equal aliquots, placed into microcentrifuge tubes, and stored at −80 °C for up to 2 months.
(§4) Liver cytosol has been used as a source of biliverdin reductase. Rat liver was perfused through the hepatic portal vein with cold 0.9% NaCl; then, it was cut and flushed with 2 × 20 mL of ice-cold PBS to remove all of the blood. Liver tissue was homogenized in 3 volumes of a solution containing 1.15% KCl w/v and Tris buffer 20 mM, pH 7.8 on ice. Homogenates were centrifuged at 10 000g for 20 min at 4 °C. The supernatant was decanted and centrifuged at 100 000g for 1 h at 4 °C to sediment the microsomes. The 100 000g supernatant was saved and then stored in small amounts at −80 °C after its protein concentration was measured.
(§5) The HO-1 and HO-2 activities were determined by measuring the bilirubin formation using the difference in absorbance at 464–530 nm, as described by Ryter et al.[2] Reaction mixtures (500 μL) consisted of 20 mM of Tris–HCl, pH 7.4, (1 mg/mL) microsomal extract, 0.5–2 mg/mL of biliverdin reductase, 1 mM of NADPH, 2 mM of glucose 6-phosphate (G6P), 1 U of G6P dehydrogenase, 25 μM of hemin, and 10 μL of DMSO (or the same volume of DMSO solution of test compounds to a final concentration of 100, 10, and 1 μM). Incubations were carried out for 60 min at 37 °C in a circulating water bath in the dark. Reactions were stopped by adding the same volume of chloroform. After recovering the chloroform phase, the amount of bilirubin formed was measured with a double-beam spectrophotometer as OD464–530 nm (extinction coefficient, 40 mM/cm^–1 for bilirubin). One unit of the enzyme was defined as the amount of enzyme catalyzing the formation of 1 nmol of bilirubin/mg protein/h.

HO-2 = target: T2, HO-2 (Rattus norvegicus, UniProt P23711); test: HO-2 enzymatic activity, rat brain microsomal fraction (bilirubin formation); format: biochemical; conditions: mean of triplicate ± SD
T2 construct: selected to use the most native (i.e., closest to in vivo) forms of HO-1 and HO-2; from tissue; host or cells: rat brain (male Sprague-Dawley), microsomal fraction
T2 sequence (P23711 1-315): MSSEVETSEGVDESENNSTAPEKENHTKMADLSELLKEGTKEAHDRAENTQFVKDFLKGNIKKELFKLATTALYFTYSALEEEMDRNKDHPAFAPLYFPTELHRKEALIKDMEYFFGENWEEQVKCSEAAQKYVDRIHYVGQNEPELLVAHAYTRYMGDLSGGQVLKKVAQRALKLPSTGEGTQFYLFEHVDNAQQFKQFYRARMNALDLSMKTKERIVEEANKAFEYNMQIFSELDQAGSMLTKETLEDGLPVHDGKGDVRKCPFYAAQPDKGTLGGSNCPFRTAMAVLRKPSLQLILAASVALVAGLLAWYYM
Experimental: as §3, §4, §5

HO-1 [4] = test: HO-1 inhibition of known inhibitors (values printed in Figure 1); format: biochemical; conditions: 0.27 vs 4.0 μM

| melting point [°C] | HO-1 vs HO-2 selectivity (in words) (HO-1 [3]) | fold more potent than parent compound 4 (HO-1) (HO-1 [3]) | IC50 (HO-1 [3]; rat spleen microsomal fraction, mean of triplicate ± SD) [nM] | SI (HO-2/HO-1) (HO-1 [3]; ratio of HO-2 and HO-1 IC50) | IC50 (HO-2) [nM] | SMILES | HO-1 protein expression (in words) (HO-1 [1]) | HO-1 protein expression (in words) (HO-1 [2]) | cell viability reduction (in words) (A172 cells) | fold higher inhibitory potency toward HO-1 with respect to monophenyl analogue 2 (HO-1 [4]) [fold] |
| --- | --- | --- | --- | --- | --- | --- | --- | --- | --- | --- |
| 121 to 126 | superimposable HO-1 and HO-2 IC50 values | about 32 fold | 900 ± 70 | 1 | 900 ± 50 | CN(C(=O)Cn1ccnc1)C(c1ccccc1)c1ccccc1 [7i, N-Benzhydryl-2-(1H-imidazol-1-yl)-N-methylacetamide] | enhanced its levels | reduced HO-1 protein expression | remarkable reduction of cell viability | – |
| – | – | – | – | – | – | O=C(CC(c1ccccc1)c1ccccc1)Cn1ccnc1 [compound 3] | – | – | – | 15 |
